Marks after values point to notes of the source that are not given here.
Tests used:
Septoria tritici = experiment: Test F: wheat leaf blotch, preventive spray on wheat seedlings, visual disease rating; type: in vivo; design: Test F rating (disease control), value marked *: concentration or dose not given beside the values; conditions: for pest or weed control at 200 µg/mL: Zymoseptoria tritici; for pest or weed control at 200 µg/mL / Test F rating (% disease control) / Test F rating (disease control): 100 = 100% disease control; for pest or weed control at 200 µg/mL / Test F rating (disease control): 0 = no disease control relative to the controls; for Test F rating (% disease control): preventive spray, rating without asterisk
Description: (§1) A hyphen (-) indicates no test results.

Botrytis cinerea = experiment: Test A: tomato Botrytis, preventive spray on tomato seedlings, visual disease rating; conditions: 100 = 100% disease control; for pest or weed control at 200 µg/mL: Botrytis cinerea, in Solanum lycopersicum, read-out: Test A rating (disease control), tomato Botrytis; for pest or weed control at 200 µg/mL / Test A rating (disease control): 0 = no disease control relative to the controls; for Test A rating (% disease control) / Test A rating (disease control): tomato Botrytis; for Test A rating (% disease control): preventive spray, 0 = no control relative to controls, rating without asterisk
Septoria nodorum = experiment: Test E: Septoria glume blotch, preventive spray on wheat seedlings, visual disease rating; conditions: 100 = 100% disease control; for pest or weed control at 200 µg/mL: Parastagonospora nodorum, in Triticum aestivum, read-out: Test E rating (disease control), Septoria glume blotch; for pest or weed control at 200 µg/mL / Test E rating (disease control): 0 = no disease control relative to the controls; for Test E rating (% disease control): Septoria glume blotch on wheat, preventive spray, rating without asterisk; for Test E rating (disease control): Septoria glume blotch
[1] = tested on: Puccinia recondita f. sp. tritici; experiment: Test G: wheat leaf rust, spray after inoculation (curative) on wheat seedlings, visual disease rating; type: in vivo; conditions: 100 = 100% disease control; for pest or weed control at 200 µg/mL / Test G rating (disease control): sprayed after inoculation, 0 = no disease control; for Test G rating (% disease control): spray after inoculation, rating without asterisk
Description: as §1

[2] = tested on: Puccinia recondita f. sp. tritici; experiment: Test H: wheat leaf rust, preventive spray on wheat seedlings, visual disease rating; conditions: 100 = 100% disease control; for pest or weed control at 200 µg/mL: read-out: Test H rating (disease control), wheat leaf rust, sprayed the day before inoculation; for pest or weed control at 200 µg/mL / Test H rating (disease control): 0 = no disease control; for Test H rating (% disease control) / Test H rating (disease control): wheat leaf rust; for Test H rating (% disease control): preventive spray, rating without asterisk; for Test H rating (disease control): sprayed the day before inoculation
Alternaria solani = experiment: Test B: tomato early blight, preventive spray on tomato seedlings, visual disease rating; conditions: for pest or weed control at 200 µg/mL: Alternaria solani, in Solanum lycopersicum, read-out: Test B rating (disease control); for Test B rating (% disease control) / Test B rating (disease control): tomato early blight, 100 = 100% disease control; for Test B rating (% disease control): preventive spray, rating without asterisk; for Test B rating (disease control): 0 = no disease control relative to the controls
[3] = tested on: Blumeria graminis f. sp. tritici; experiment: Test I: wheat powdery mildew, preventive spray on wheat seedlings, visual disease rating; conditions: for pest or weed control at 200 µg/mL: Blumeria graminis, in Triticum aestivum, read-out: Test I rating (disease control), wheat powdery mildew; for pest or weed control at 200 µg/mL / Test I rating (% disease control) / Test I rating (disease control): 100 = 100% disease control; for pest or weed control at 200 µg/mL / Test I rating (disease control): 0 = no disease control relative to the controls; for Test I rating (% disease control): preventive spray, rating without asterisk

Row | SMILES | Test F rating (disease control) (Septoria tritici) | Test A rating (disease control) (Botrytis cinerea) | Test E rating (disease control) (Septoria nodorum) | Test G rating (disease control) [1] | Test H rating (disease control) [2] | Test B rating (disease control) (Alternaria solani) | Test I rating (disease control) ([3]; wheat powdery mildew) | further results
1 | Cc1nn(C)c(Nc2ccc(F)cc2Br)c1-c1ccc(F)cc1Cl [Compound 73, N-(2-bromo-4-fluorophenyl)-4-(2-chloro-4-fluorophenyl)-1,3-dimethyl-1H-pyrazol-5-amine] | – | – | – | – | – | – | – | pest or weed control at 200 µg/mL (Septoria tritici): 100%; pest or weed control at 200 µg/mL (Botrytis cinerea): 100%; pest or weed control at 200 µg/mL (Septoria nodorum): 78%; pest or weed control at 200 µg/mL [1]: 90%; pest or weed control at 200 µg/mL [2]: 100%; pest or weed control at 200 µg/mL (Alternaria solani): 99%; pest or weed control at 200 µg/mL [3]: 100%
2 | COc1ccc(-c2c(C)nn(C)c2Nc2c(F)cc(Cl)cc2Cl)c(Cl)c1 [compound 201] | – | – | – | – | – | – | – | Test F rating (% disease control) (Septoria tritici): 100%; Test A rating (% disease control) (Botrytis cinerea): 100%; Test E rating (% disease control) (Septoria nodorum): 99%; Test G rating (% disease control) [1]: 98%; Test H rating (% disease control) [2]: 100%; Test B rating (% disease control) (Alternaria solani): 100%; Test I rating (% disease control) ([3]; wheat powdery mildew): 97%
3 | Cc1nn(C)c(Nc2c(F)cc(F)cc2F)c1-c1c(F)cc(C#N)cc1F [compound 35] | 99% | 100% | 60% | 0% | 100% | 100% | 94% | –
4 | CCOc1ccc(Nc2c(-c3ccc(F)cc3Cl)c(C)nn2C)c(Cl)c1 [compound 104] | 100% | 100% | 0% | 0% | 97% | 0% | 99% | –
5 | Cc1nn(C)c(Oc2ccc(C#N)cc2Cl)c1-c1ccc(F)cc1Br [compound 80] | – | 98% | 60% | 9% | 99% | 0% | 99% | Test F rating (disease control), value marked * (Septoria tritici; rating marked with asterisk (*), other test condition, not explained in the text shown): 100* %
6 | COc1cc(Cl)c(Nc2c(-c3ccc(F)cc3Cl)c(C)nn2C)c(Cl)c1 [compound 85] | 100% | 99% | 0% | 0% | 99% | 0% | – | Test I rating (disease control), value marked * ([3]; wheat powdery mildew, rating marked with asterisk (*), not explained in the text shown): 99* %
7 | Cc1nn(C)c(Nc2ccc(F)cc2Br)c1-c1c(Cl)cccc1Cl [compound 114] | 100% | 99% | 0% | 0% | 91% | 0% | 100% | –
8 | Cc1nn(C)c(Oc2ccc(C#N)cc2Cl)c1-c1ccc(F)cc1F [Compound 140, 3-chloro-4-[[4-(2,4-difluorophenyl)-1,3-dimethyl-1H-pyrazol-5-yl]oxy]benzonitrile] | – | – | – | – | – | – | – | pest or weed control at 200 µg/mL (Septoria tritici): 100%; pest or weed control at 200 µg/mL (Botrytis cinerea): 67%; pest or weed control at 200 µg/mL (Septoria nodorum): 0%; pest or weed control at 200 µg/mL [1]: 9%; pest or weed control at 200 µg/mL [2]: 97%; pest or weed control at 200 µg/mL (Alternaria solani): 0%; pest or weed control at 200 µg/mL [3]: 97%
9 | COc1ccc(Nc2c(-c3ccc(F)cc3F)c(C)nn2C)c(F)c1 [compound 63] | 99% | 99% | 0% | 0% | 80% | 99% | 99% | –
10 | COc1ccc(-c2c(C)nn(C)c2Oc2ccc(C#N)cc2F)c(Br)c1 [compound 100] | 100% | 92% | 100% | 0% | 99% | 88% | 95% | –
11 | CCOc1cc(F)c(-c2c(C)nn(C)c2Nc2c(F)cc(Cl)cc2Cl)c(F)c1 [compound 198] | – | – | – | – | – | – | – | Test F rating (% disease control) (Septoria tritici): 100%; Test A rating (% disease control) (Botrytis cinerea): 100%; Test E rating (% disease control) (Septoria nodorum): 60%; Test G rating (% disease control) [1]: 9%; Test H rating (% disease control) [2]: 80%; Test B rating (% disease control) (Alternaria solani): 100%; Test I rating (% disease control) ([3]; wheat powdery mildew): 96%
12 | Cc1nn(C)c(Nc2c(Cl)cc(F)cc2Cl)c1-c1ccc(F)cc1F [Compound 137, N-(2,6-dichloro-4-fluorophenyl)-4-(2,4-difluorophenyl)-1,3-dimethyl-1H-pyrazol-5-amine] | – | – | – | – | – | – | – | pest or weed control at 200 µg/mL (Septoria tritici): 100%; pest or weed control at 200 µg/mL (Botrytis cinerea): 100%; pest or weed control at 200 µg/mL (Septoria nodorum): 87%; pest or weed control at 200 µg/mL [1]: 87%; pest or weed control at 200 µg/mL [2]: 99%; pest or weed control at 200 µg/mL (Alternaria solani): 95%; pest or weed control at 200 µg/mL [3]: 100%
13 | Cc1nn(C)c(Nc2c(F)cc(F)cc2I)c1-c1ccc(F)cc1Br [compound 215] | – | – | – | – | – | – | – | Test F rating (% disease control) (Septoria tritici): 100%; Test A rating (% disease control) (Botrytis cinerea): 100%; Test E rating (% disease control) (Septoria nodorum): 99%; Test G rating (% disease control) [1]: 100%; Test H rating (% disease control) [2]: 100%; Test B rating (% disease control) (Alternaria solani): 100%; Test I rating (% disease control) ([3]; wheat powdery mildew): 100%
14 | COc1ccc(-c2c(C)nn(C)c2Nc2c(F)cc(F)cc2Cl)c(Cl)c1 [compound 203] | – | – | – | – | – | – | – | Test F rating (% disease control) (Septoria tritici): 100%; Test A rating (% disease control) (Botrytis cinerea): 95%; Test E rating (% disease control) (Septoria nodorum): 73%; Test G rating (% disease control) [1]: 79%; Test H rating (% disease control) [2]: 100%; Test B rating (% disease control) (Alternaria solani): 100%; Test I rating (% disease control) ([3]; wheat powdery mildew): 98%
15 | COc1ccc(-c2c(C)nn(C)c2Nc2ccc(F)cc2F)c(Cl)c1 [compound 42] | 99% | 98% | 0% | 8% | 100% | 99% | 100% | –
16 | Cc1nn(C)c(Oc2ccc(C#N)cc2F)c1-c1ccc(Cl)cc1F [compound 119] | 100% | 99% | 94% | 0% | 91% | 94% | 99% | –
17 | Cc1nn(C)c(Oc2ccc(C#N)cc2F)c1-c1c(F)cc(F)cc1F [compound 27] | 100% | 99% | 99% | 9% | 99% | 99% | 100% | –

Reference: patent US20170150719A1, “FUNGICIDAL PYRAZOLES AND THEIR MIXTURES” (E I DU PONT DE NEMOURS AND COMPANY, priority 2010, published 2017)
